The record followed here is PMC8537140, “Synthesis and Inhibition Activity Study of Triazinyl-Substituted Amino(alkyl)-benzenesulfonamide Conjugates with Polar and Hydrophobic Amino Acids as Inhibitors of Human Carbonic Anhydrases I, II, IV, IX, and XII” (International Journal of Molecular Sciences, 2021).

What all share (format): biochemical
For one test, the target named is T1, hCA I (Homo sapiens, UniProt P00915).
T1 construct: made in house
Kind of test: stopped-flow CO2 hydrase assay, hCA I. The conditions noted are these: recombinant enzyme, 15 min preincubation, pH 8.3, mean from 3 assays.

The target in a further test is T2, hCA II (Homo sapiens, UniProt P00918).
T2 construct: made in house
Kind of test: stopped-flow CO2 hydrase assay, hCA II. Particulars: recombinant enzyme, 15 min preincubation, pH 8.3, mean from 3 assays.

The target in the next test is T3, hCA IV (Homo sapiens, UniProt P22748).
T3 construct: made in house
Kind of test: stopped-flow CO2 hydrase assay, hCA IV. The conditions noted are these: recombinant enzyme, 15 min preincubation, pH 8.3, mean from 3 assays.

The next test has as its target T4, hCA IX (Homo sapiens, UniProt Q16790).
T4 construct: made in house
Kind of test: stopped-flow CO2 hydrase assay, hCA IX. Particulars: for Selectivity II/IX: ratio Ki hCA II / Ki hCA IX; for Ki: recombinant enzyme, 15 min preincubation, pH 8.3, mean from 3 assays.

The target in the next test is T5, hCA XII (Homo sapiens, UniProt O43570).
T5 construct: made in house
Kind of test: stopped-flow CO2 hydrase assay, hCA XII. The conditions noted are these: for Selectivity II/XII: ratio Ki hCA II / Ki hCA XII; for Ki: recombinant enzyme, 15 min preincubation, pH 8.3, mean from 3 assays.

T5 sequence (O43570 25-354): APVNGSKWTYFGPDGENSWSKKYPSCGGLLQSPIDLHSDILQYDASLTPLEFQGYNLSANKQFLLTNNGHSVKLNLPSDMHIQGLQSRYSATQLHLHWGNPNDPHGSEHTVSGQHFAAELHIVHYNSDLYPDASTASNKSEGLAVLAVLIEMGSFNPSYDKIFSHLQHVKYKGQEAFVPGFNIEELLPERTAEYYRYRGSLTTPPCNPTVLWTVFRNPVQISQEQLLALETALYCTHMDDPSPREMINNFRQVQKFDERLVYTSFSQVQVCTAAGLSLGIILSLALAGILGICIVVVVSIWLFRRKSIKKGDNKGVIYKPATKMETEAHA
T3 sequence (P22748 19-312): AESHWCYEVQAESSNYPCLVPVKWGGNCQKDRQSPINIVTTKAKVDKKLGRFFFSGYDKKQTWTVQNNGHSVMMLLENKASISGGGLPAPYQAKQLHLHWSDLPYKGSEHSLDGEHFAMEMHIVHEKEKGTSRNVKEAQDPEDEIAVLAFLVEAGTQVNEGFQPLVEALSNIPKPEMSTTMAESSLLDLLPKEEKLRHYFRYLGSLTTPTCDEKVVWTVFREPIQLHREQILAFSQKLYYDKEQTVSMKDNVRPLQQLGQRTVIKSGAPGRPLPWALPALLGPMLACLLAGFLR
T1 sequence (P00915 whole entry): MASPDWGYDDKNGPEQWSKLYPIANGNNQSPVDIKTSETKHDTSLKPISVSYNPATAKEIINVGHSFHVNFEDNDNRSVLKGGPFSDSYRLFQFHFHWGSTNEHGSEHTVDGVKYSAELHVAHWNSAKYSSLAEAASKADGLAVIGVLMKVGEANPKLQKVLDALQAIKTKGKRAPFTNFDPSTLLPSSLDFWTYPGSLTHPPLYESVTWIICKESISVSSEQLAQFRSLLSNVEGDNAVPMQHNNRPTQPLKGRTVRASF
Protocol for hCA II: (§1) An Applied Photophysics stopped-flow instrument (Applied Photophysics, Leatherhead, UK) was used for assaying the CA-catalyzed CO2 hydration activity [31]. […] The uncatalyzed rates were determined in the same manner and subtracted from the total observed rates. Stock solutions of inhibitor (0.1 mM) were prepared in distilled-deionized water and dilutions up to 0.005 nM were done thereafter with the assay buffer. Inhibitor and enzyme solutions were preincubated together for 15 min at room temperature prior to assay, in order to allow formation of the E–I complex. The inhibition constants were obtained by non-linear least-squares methods using PRISM 3 and the ChengPrusoff equation, as reported earlier, and represent the mean from at least three different determinations. All CA isozymes were recombinant ones obtained in-house.
Protocol for hCA IV: as §1
Protocol for hCA IX: as §1
Protocol for hCA XII: as §1

Broadly, the Ki is the equilibrium dissociation constant of an inhibitor or competing ligand from its target. As for `CC(O)C(Nc1nc(NCc2ccc(S(N)(=O)=O)cc2)nc(NC(C(=O)O)C(C)O)n1)C(=O)O` (stereo not shown) [compound 15, 2,2′-[(6-({4-sulfamoylbenzyl}amino)-1,3,5-triazine-2,4-diyl)diimino]bis(3-hydroxybutanoic acid)], the Ki at hCA I was 684 nM; on hCA II, 76.6 nM; on hCA IV it was greater than 10000 nM; on hCA IX, 365 nM; at hCA XII it was 44.9 nM. On hCA IX, the “Selectivity II/IX” value is 0.21. In addition, the “Selectivity II/XII” value on hCA XII is 1.70.
Consider `NC(=O)CCC(Nc1nc(NCCc2ccc(S(N)(=O)=O)cc2)nc(NC(CCC(N)=O)C(=O)O)n1)C(=O)O` (stereo not shown) [compound 24, 2,2′-[(6-({2-(4-sulfamoylphenyl)ethyl}amino)-1,3,5-triazine-2,4-diyl)diimino]bis(4-carbamoylbutanoic acid)], for which the Ki on hCA I is 684 nM; on hCA II, 191 nM; at hCA IV, greater than 10000 nM; on hCA IX, 480 nM; at hCA XII it was 57 nM. Also, the “Selectivity II/IX” value at hCA IX worked out at 0.40. For the same molecule, at hCA XII, the “Selectivity II/XII” value was determined as 3.40.
Regarding `NC(=O)CCC(Nc1nc(Nc2ccc(S(N)(=O)=O)cc2)nc(NC(CCC(N)=O)C(=O)O)n1)C(=O)O` (stereo not shown) [compound 10], the Ki at hCA I turned out to be 9200 nM; at hCA II it was 775 nM; on hCA IV, 8410 nM; at hCA IX, 625 nM; at hCA XII, 68.3 nM. Further, the “Selectivity II/IX” value on hCA IX was 1.24. For the same molecule, the “Selectivity II/XII” value at hCA XII is recorded as 11.30.
As to `NS(=O)(=O)c1ccc(CCNc2nc(NC(Cc3c[nH]c4ccccc34)C(=O)O)nc(NC(Cc3c[nH]c4ccccc34)C(=O)O)n2)cc1` (stereo not shown) [compound 20, 2,2′-[(6-({2-(4-sulfamoylphenyl)ethyl}amino)-1,3,5-triazine-2,4-diyl)diimino]bis(3-(1H-indol-3-yl)propanoic acid)], the inhibitory constant (Ki) at hCA I was determined as 41.4 nM; on hCA II it was 3.54 nM; on hCA IV, 542 nM; at hCA IX it was 308 nM; on hCA XII, 8.4 nM. The “Selectivity II/IX” value on hCA IX came out at 0.01. Besides, the “Selectivity II/XII” value at hCA XII was determined as 0.40.
With `NS(=O)(=O)c1ccc(CNc2nc(NC(CO)C(=O)O)nc(NC(CO)C(=O)O)n2)cc1` (stereo not shown) [compound 14, 2,2′-[(6-({4-sulfamoylbenzyl}amino)-1,3,5-triazine-2,4-diyl)diimino]bis(3-hydroxypropanoic acid)], the Ki is 653 nM at hCA I; 252 nM on hCA II; 6100 nM on hCA IV; 263 nM on hCA IX; 81.5 nM on hCA XII. For the same molecule, on hCA IX, the “Selectivity II/IX” value came to 0.96. Moreover, the “Selectivity II/XII” value at hCA XII amounted to 3.10.
For `NS(=O)(=O)c1ccc(Nc2nc(N[C@@H](Cc3c[nH]c4ccccc34)C(=O)O)nc(N[C@@H](Cc3c[nH]c4ccccc34)C(=O)O)n2)cc1` [compound 6], the Ki turned out to be 48.3 nM at hCA I; 1.61 nM at hCA II; 59.3 nM at hCA IV; 45.2 nM on hCA IX; 8.21 nM on hCA XII. The “Selectivity II/IX” value on hCA IX is given as 0.04. Moreover, at hCA XII, the “Selectivity II/XII” value came to 0.20.
Regarding `CC(O)C(Nc1nc(Nc2ccc(S(N)(=O)=O)cc2)nc(NC(C(=O)O)C(C)O)n1)C(=O)O` (stereo not shown) [compound 8], the inhibition constant (Ki) on hCA I was 7270 nM; on hCA II, 904 nM; on hCA IV, 4910 nM; at hCA IX, 867 nM; on hCA XII, 34.6 nM. At hCA IX, the “Selectivity II/IX” value is listed as 1.04. Besides, the “Selectivity II/XII” value at hCA XII amounted to 26.10.
As for `NS(=O)(=O)c1ccc(CNc2nc(NC(Cc3ccc(O)cc3)C(=O)O)nc(NC(Cc3ccc(O)cc3)C(=O)O)n2)cc1` (stereo not shown) [compound 12, 2,2′-[(6-({4-sulfamoylbenzyl}amino)-1,3,5-triazine-2,4-diyl)diimino]bis(3-(4-hydroxyphenyl)propanoic acid)], the Ki on hCA I worked out at 75.7 nM; at hCA II, 53.1 nM; at hCA IV it was 244 nM; at hCA IX it was 87.3 nM; at hCA XII, 8.7 nM. Also, the “Selectivity II/IX” value on hCA IX is on record as 0.61. Besides, on hCA XII, the “Selectivity II/XII” value is given as 6.10.
`NS(=O)(=O)c1ccc(CNc2nc(NC(Cc3c[nH]c4ccccc34)C(=O)O)nc(NC(Cc3c[nH]c4ccccc34)C(=O)O)n2)cc1` (stereo not shown) [compound 13, 2,2′-[(6-({4-sulfamoylbenzyl}amino)-1,3,5-triazine-2,4-diyl)diimino]bis(3-(1H-indol-3-yl)propanoic acid)]: the Ki was found to be 30.5 nM on hCA I; 6.22 nM on hCA II; 93.6 nM at hCA IV; 66.4 nM on hCA IX; 8.6 nM at hCA XII. The “Selectivity II/IX” value at hCA IX was 0.09. The “Selectivity II/XII” value at hCA XII stood at 0.70.
Regarding `NC(=O)CC(Nc1nc(NCCc2ccc(S(N)(=O)=O)cc2)nc(NC(CC(N)=O)C(=O)O)n1)C(=O)O` (stereo not shown) [compound 23, 2,2′-[(6-({2-(4-sulfamoylphenyl)ethyl}amino)-1,3,5-triazine-2,4-diyl)diimino]bis(3-carbamoylpropanoic acid)], the Ki at hCA I is 886 nM; on hCA II it was 136 nM; on hCA IV, greater than 10000 nM; on hCA IX, 377 nM; at hCA XII, 53.1 nM. Besides, on hCA IX, the “Selectivity II/IX” value is 0.36. Besides, at hCA XII, the “Selectivity II/XII” value is 2.60.
For `NC(=O)CCC(Nc1nc(NCc2ccc(S(N)(=O)=O)cc2)nc(NC(CCC(N)=O)C(=O)O)n1)C(=O)O` (stereo not shown) [compound 17, 2,2′-[(6-({4-sulfamoylbenzyl}amino)-1,3,5-triazine-2,4-diyl)diimino]bis(4-carbamoylbutanoic acid)], the Ki at hCA I is 695 nM; at hCA II it was 239 nM; on hCA IV, greater than 10000 nM; on hCA IX, 458 nM; at hCA XII, 34.3 nM. Besides, the “Selectivity II/IX” value at hCA IX was 0.52. For the same molecule, the “Selectivity II/XII” value at hCA XII came out at 7.00.
Take `CC(O)C(Nc1nc(NCCc2ccc(S(N)(=O)=O)cc2)nc(NC(C(=O)O)C(C)O)n1)C(=O)O` (stereo not shown) [compound 22, 2,2′-[(6-({2-(4-sulfamoylphenyl)ethyl}amino)-1,3,5-triazine-2,4-diyl)diimino]bis(3-hydroxybutanoic acid)]: the inhibition constant (Ki) at hCA I is 829 nM; at hCA II, 259 nM; on hCA IV, greater than 10000 nM; on hCA IX it was 89.5 nM; at hCA XII, 62.7 nM. The “Selectivity II/IX” value at hCA IX is given as 2.89. In addition, at hCA XII, the “Selectivity II/XII” value is recorded as 4.10.
As to `NS(=O)(=O)c1ccc(Nc2nc(NC(CO)C(=O)O)nc(NC(CO)C(=O)O)n2)cc1` (stereo not shown) [compound 7], the Ki on hCA I was determined as 6560 nM; on hCA II, 523 nM; on hCA IV it was 8700 nM; on hCA IX, 465 nM; on hCA XII it was 71.9 nM. In addition, the “Selectivity II/IX” value on hCA IX is on record as 1.12. Also, the “Selectivity II/XII” value at hCA XII is reported as 7.30.
